Results taken from the supplement of paper PMC10307832.

What was measured:
Assay in all cases: relative viability (nuclei count vs DMSO), 5 days (fraction); higher = more cells survive
CAL-12T = system: CAL-12T
Procedure, shortened: (§1)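 Lung cancer cell lines in 1536-well plates got either a single drug or a fixed anchor-drug dose together with five library-drug doses (not always all listed) in √10 steps, by pin tool, on the day after seeding. Nuclei were counted after 5 days, and relative viability is the treated-to-vehicle ratio of nuclei counts. Values are medians of duplicate plates.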

COR-L 105 = system: COR-L 105
Procedure, shortened: as §1

COR-L23 = system: COR-L23
Procedure, shortened: as §1

HARA = system: HARA
Procedure, shortened: as §1

HCC-15 = system: HCC-15
Procedure, shortened: as §1

HCC-366 = system: HCC-366
Procedure, shortened: as §1

HCC-44 = system: HCC-44
Procedure, shortened: as §1

HCC-827 = system: HCC-827
Procedure, shortened: as §1

HOP-62 = system: HOP-62
Procedure, shortened: as §1

LC-2-ad = system: LC-2-ad
Procedure, shortened: as §1

LK-2 = system: LK-2
Procedure, shortened: as §1

LU99A = system: LU99A
Procedure, shortened: as §1

LXF-289 = system: LXF-289
Procedure, shortened: as §1

NCI-H1944 = system: NCI-H1944
Procedure, shortened: as §1

NCI-H1975 = system: NCI-H1975
Procedure, shortened: as §1

NCI-H2023 = system: NCI-H2023
Procedure, shortened: as §1

NCI-H2085 = system: NCI-H2085
Procedure, shortened: as §1

NCI-H647 = system: NCI-H647
Procedure, shortened: as §1

NCI-H838 = system: NCI-H838
Procedure, shortened: as §1

PC-14 = system: PC-14
Procedure, shortened: as §1

Structure (SMILES): C=C1C(=O)O[C@@H](CCCCCCCC)[C@@H]1C(=O)O [C-75] + CC1(C)CCC(c2ccc(Cl)cc2)=C(CN2CCN(c3ccc(C(=O)NS(=O)(=O)c4ccc(N[C@H](CCN5CCOCC5)CSc5ccccc5)c(S(=O)(=O)C(F)(F)F)c4)cc3)CC2)C1 [Navitoclax] (partner 0.5 µM)
- relative viability (CAL-12T; first compound 0.08 µM): 1.47
- relative viability (CAL-12T; first compound 0.253 µM): 1.44
- relative viability (CAL-12T; first compound 0.8 µM): 1.17
- relative viability (CAL-12T; first compound 8 µM): 1.08
- relative viability (COR-L 105; first compound 0.08 µM): 0.81
- relative viability (COR-L 105; first compound 0.253 µM): 0.828
- relative viability (COR-L 105; first compound 0.8 µM): 0.573
- relative viability (COR-L 105; first compound 2.53 µM): 0.788
- relative viability (COR-L 105; first compound 8 µM): 0.562
- relative viability (COR-L23; first compound 0.08 µM): 0.966
- relative viability (COR-L23; first compound 0.253 µM): 0.884
- relative viability (COR-L23; first compound 0.8 µM): 0.955
- relative viability (COR-L23; first compound 2.53 µM): 0.989
- relative viability (COR-L23; first compound 8 µM): 0.964
- relative viability (HARA; first compound 0.08 µM): 1.07
- relative viability (HARA; first compound 0.253 µM): 1.26
- relative viability (HARA; first compound 0.8 µM): 1.12
- relative viability (HARA; first compound 8 µM): 1.14
- relative viability (HCC-15; first compound 0.08 µM): 0.692
- relative viability (HCC-15; first compound 0.253 µM): 0.725
- relative viability (HCC-15; first compound 0.8 µM): 0.686
- relative viability (HCC-15; first compound 2.53 µM): 0.59
- relative viability (HCC-15; first compound 8 µM): 0.733
- relative viability (HCC-366; first compound 0.08 µM): 1.03
- relative viability (HCC-366; first compound 0.253 µM): 1.1
- relative viability (HCC-366; first compound 0.8 µM): 0.943
- relative viability (HCC-366; first compound 8 µM): 0.833
- relative viability (HCC-44; first compound 0.08 µM): 0.972
- relative viability (HCC-44; first compound 0.253 µM): 0.959
- relative viability (HCC-44; first compound 0.8 µM): 0.905
- relative viability (HCC-44; first compound 2.53 µM): 0.791
- relative viability (HCC-44; first compound 8 µM): 1.02
- relative viability (HCC-827; first compound 0.08 µM): 1.02
- relative viability (HCC-827; first compound 0.253 µM): 0.884
- relative viability (HCC-827; first compound 0.8 µM): 0.952
- relative viability (HCC-827; first compound 2.53 µM): 0.985
- relative viability (HCC-827; first compound 8 µM): 1.04
- relative viability (HOP-62; first compound 0.08 µM): 1.02
- relative viability (HOP-62; first compound 0.253 µM): 1.25
- relative viability (HOP-62; first compound 0.8 µM): 1.04
- relative viability (HOP-62; first compound 2.53 µM): 0.889
- relative viability (HOP-62; first compound 8 µM): 0.857
- relative viability (LC-2-ad; first compound 0.08 µM): 0.53
- relative viability (LC-2-ad; first compound 0.253 µM): 0.56
- relative viability (LC-2-ad; first compound 0.8 µM): 0.479
- relative viability (LC-2-ad; first compound 8 µM): 0.474
- relative viability (LK-2; first compound 0.08 µM): 0.819
- relative viability (LK-2; first compound 0.253 µM): 0.883
- relative viability (LK-2; first compound 0.8 µM): 1.02
- relative viability (LK-2; first compound 2.53 µM): 0.769
- relative viability (LK-2; first compound 8 µM): 0.648
- relative viability (LU99A; first compound 0.08 µM): 0.795
- relative viability (LU99A; first compound 0.253 µM): 0.845
- relative viability (LU99A; first compound 0.8 µM): 0.695
- relative viability (LU99A; first compound 2.53 µM): 0.588
- relative viability (LU99A; first compound 8 µM): 0.594
- relative viability (LXF-289; first compound 0.08 µM): 0.896
- relative viability (LXF-289; first compound 0.253 µM): 0.999
- relative viability (LXF-289; first compound 0.8 µM): 0.91
- relative viability (LXF-289; first compound 2.53 µM): 0.873
- relative viability (LXF-289; first compound 8 µM): 0.928
- relative viability (NCI-H1944; first compound 0.08 µM): 1.03
- relative viability (NCI-H1944; first compound 0.253 µM): 0.896
- relative viability (NCI-H1944; first compound 0.8 µM): 1.01
- relative viability (NCI-H1944; first compound 8 µM): 0.998
- relative viability (NCI-H1975; first compound 0.08 µM): 0.983
- relative viability (NCI-H1975; first compound 0.253 µM): 1.1
- relative viability (NCI-H1975; first compound 0.8 µM): 1.12
- relative viability (NCI-H1975; first compound 2.53 µM): 1.1
- relative viability (NCI-H1975; first compound 8 µM): 1.14
- relative viability (NCI-H2023; first compound 0.08 µM): 0.971
- relative viability (NCI-H2023; first compound 0.253 µM): 1.04
- relative viability (NCI-H2023; first compound 0.8 µM): 0.959
- relative viability (NCI-H2023; first compound 2.53 µM): 0.659
- relative viability (NCI-H2023; first compound 8 µM): 0.945
- relative viability (NCI-H2085; first compound 0.08 µM): 1.15
- relative viability (NCI-H2085; first compound 0.253 µM): 1.2
- relative viability (NCI-H2085; first compound 0.8 µM): 1.07
- relative viability (NCI-H2085; first compound 2.53 µM): 1.11
- relative viability (NCI-H2085; first compound 8 µM): 1.08
- relative viability (NCI-H647; first compound 0.08 µM): 1.12
- relative viability (NCI-H647; first compound 0.253 µM): 1.05
- relative viability (NCI-H647; first compound 2.53 µM): 0.875
- relative viability (NCI-H647; first compound 8 µM): 0.857
- relative viability (NCI-H838; first compound 0.08 µM): 1.12
- relative viability (NCI-H838; first compound 0.253 µM): 0.916
- relative viability (NCI-H838; first compound 0.8 µM): 1.14
- relative viability (NCI-H838; first compound 2.53 µM): 1.03
- relative viability (NCI-H838; first compound 8 µM): 0.954
- relative viability (PC-14; first compound 0.08 µM): 1.01
- relative viability (PC-14; first compound 0.253 µM): 1
- relative viability (PC-14; first compound 0.8 µM): 0.977
- relative viability (PC-14; first compound 2.53 µM): 0.911
- relative viability (PC-14; first compound 8 µM): 0.978
